From PubChem BioAssay (NCI)
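Exposure lasted 48 hours, with cells grown in 96-well plates and compounds tested at five concentrations. TGI: concentration producing complete growth inhibition.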

How the values were obtained:
Experiment in all cases: growth of human tumour cells (NCI), 48 h
OVCAR-8 ovarian = system: OVCAR-8 ovarian
OVCAR-5 ovarian = system: OVCAR-5 ovarian
MOLT-4 leukemia = system: MOLT-4 leukemia
A549 NSCLC = system: A549 NSCLC
A498 renal = system: A498 renal
U251 CNS = system: U251 CNS
HOP-62 NSCLC = system: HOP-62 NSCLC
DU-145 prostate = system: DU-145 prostate
NCI/ADR-RES ovarian = system: NCI/ADR-RES ovarian
MALME-3M melanoma = system: MALME-3M melanoma
SW-620 colon = system: SW-620 colon
OVCAR-3 ovarian = system: OVCAR-3 ovarian
K-562 leukemia = system: K-562 leukemia
SK-MEL-5 melanoma = system: SK-MEL-5 melanoma
SF-539 CNS = system: SF-539 CNS
PC-3 prostate = system: PC-3 prostate
HS 578T breast = system: HS 578T breast
LOX IMVI melanoma = system: LOX IMVI melanoma
MDA-N = system: MDA-N
SK-MEL-28 melanoma = system: SK-MEL-28 melanoma
HL-60(TB) leukemia = system: HL-60(TB) leukemia
NCI-H522 lung = system: NCI-H522 lung
SF-268 CNS = system: SF-268 CNS
HCT-116 colon = system: HCT-116 colon
HCT-15 colon = system: HCT-15 colon
M14 melanoma = system: M14 melanoma
SNB-75 CNS = system: SNB-75 CNS
COLO 205 colon = system: COLO 205 colon
NCI-H460 lung = system: NCI-H460 lung
SK-OV-3 ovarian = system: SK-OV-3 ovarian
NCI-H23 lung = system: NCI-H23 lung
T-47D breast = system: T-47D breast
UACC-257 melanoma = system: UACC-257 melanoma
OVCAR-4 ovarian = system: OVCAR-4 ovarian
BT-549 breast = system: BT-549 breast
HT29 colon = system: HT29 colon
UACC-62 melanoma = system: UACC-62 melanoma
UO-31 renal = system: UO-31 renal
786-0 renal = system: 786-0 renal
MCF7 breast = system: MCF7 breast
CAKI-1 renal = system: CAKI-1 renal
ACHN renal = system: ACHN renal
IGROV1 ovarian = system: IGROV1 ovarian
SN12C renal = system: SN12C renal
HCC-2998 colon = system: HCC-2998 colon
MDA-MB-435 = system: MDA-MB-435
MDA-MB-231 breast = system: MDA-MB-231 breast
SNB-19 CNS = system: SNB-19 CNS
EKVX NSCLC = system: EKVX NSCLC
SK-MEL-2 melanoma = system: SK-MEL-2 melanoma
HOP-92 NSCLC = system: HOP-92 NSCLC
SR leukemia = system: SR leukemia
CCRF-CEM leukemia = system: CCRF-CEM leukemia
NCI-H226 lung = system: NCI-H226 lung
RXF 393 renal = system: RXF 393 renal
KM12 colon = system: KM12 colon
SF-295 CNS = system: SF-295 CNS
RPMI-8226 leukemia = system: RPMI-8226 leukemia
TK-10 renal = system: TK-10 renal

N#CC1=C(N)OC2=C(CCCc3ccccc32)C1c1ccc([N+](=O)[O-])cc1 (stereo not drawn)
TGI (OVCAR-8 ovarian): 39 µM | TGI (OVCAR-5 ovarian): 50.2 µM | TGI (MOLT-4 leukemia): 1.64 µM | TGI (A549 NSCLC): 74.6 µM | TGI (A498 renal): 27.1 µM | TGI (U251 CNS): 29.8 µM | TGI (HOP-62 NSCLC): 35.9 µM | TGI (DU-145 prostate): 21.8 µM | TGI (NCI/ADR-RES ovarian): 31.6 µM | TGI (MALME-3M melanoma): 29.9 µM | TGI (SW-620 colon): 35.5 µM | TGI (OVCAR-3 ovarian): 26.7 µM | TGI (K-562 leukemia): 11.5 µM | TGI (SK-MEL-5 melanoma): 28.3 µM | TGI (SF-539 CNS): 35.2 µM | TGI (PC-3 prostate): 38.8 µM | TGI (HS 578T breast): > 100 µM | TGI (LOX IMVI melanoma): 41.1 µM | TGI (MDA-N): 38.2 µM | TGI (SK-MEL-28 melanoma): 35.2 µM | TGI (HL-60(TB) leukemia): 28.2 µM | TGI (NCI-H522 lung): 24.2 µM | TGI (SF-268 CNS): 32.7 µM | TGI (HCT-116 colon): 26.1 µM | TGI (HCT-15 colon): 30.7 µM | TGI (M14 melanoma): 28 µM | TGI (SNB-75 CNS): > 100 µM | TGI (COLO 205 colon): 31.7 µM | TGI (NCI-H460 lung): 47.7 µM | TGI (SK-OV-3 ovarian): 92.1 µM | TGI (NCI-H23 lung): 34.6 µM | TGI (T-47D breast): 26.1 µM | TGI (UACC-257 melanoma): 32.4 µM | TGI (OVCAR-4 ovarian): 75.4 µM | TGI (BT-549 breast): 23.9 µM | TGI (HT29 colon): 28.2 µM | TGI (UACC-62 melanoma): 24.5 µM | TGI (UO-31 renal): 24 µM | TGI (786-0 renal): 42.6 µM | TGI (MCF7 breast): 36.4 µM | TGI (CAKI-1 renal): > 100 µM | TGI (ACHN renal): 39.1 µM | TGI (IGROV1 ovarian): 54 µM | TGI (SN12C renal): 29 µM | TGI (HCC-2998 colon): 26.8 µM | TGI (MDA-MB-435): 39.8 µM | TGI (MDA-MB-231 breast): > 100 µM | TGI (SNB-19 CNS): 45.7 µM | TGI (EKVX NSCLC): 43 µM | TGI (SK-MEL-2 melanoma): 40.8 µM | TGI (HOP-92 NSCLC): 57.9 µM | TGI (SR leukemia): 37.4 µM | TGI (CCRF-CEM leukemia): 23.2 µM | TGI (NCI-H226 lung): 52.5 µM | TGI (RXF 393 renal): 27.6 µM | TGI (KM12 colon): 32.5 µM | TGI (SF-295 CNS): 36.1 µM | TGI (RPMI-8226 leukemia): 13.1 µM | TGI (TK-10 renal): 84.9 µM

[N-]=[N+]=NCC1OC(n2cnc3c(N)ncnc32)C2OC12 (stereo not drawn)
TGI (OVCAR-8 ovarian): > 100 µM | TGI (OVCAR-5 ovarian): > 100 µM | TGI (MOLT-4 leukemia): > 100 µM | TGI (A549 NSCLC): > 100 µM | TGI (A498 renal): > 100 µM | TGI (U251 CNS): > 100 µM | TGI (HOP-62 NSCLC): > 100 µM | TGI (DU-145 prostate): > 100 µM | TGI (NCI/ADR-RES ovarian): > 100 µM | TGI (MALME-3M melanoma): > 100 µM | TGI (SW-620 colon): > 100 µM | TGI (OVCAR-3 ovarian): > 100 µM | TGI (K-562 leukemia): > 100 µM | TGI (SK-MEL-5 melanoma): > 100 µM | TGI (SF-539 CNS): > 100 µM | TGI (PC-3 prostate): > 100 µM | TGI (HS 578T breast): > 100 µM | TGI (LOX IMVI melanoma): > 100 µM | TGI (MDA-N): > 100 µM | TGI (SK-MEL-28 melanoma): > 100 µM | TGI (HL-60(TB) leukemia): > 100 µM | TGI (NCI-H522 lung): > 100 µM | TGI (SF-268 CNS): > 100 µM | TGI (HCT-116 colon): > 100 µM | TGI (HCT-15 colon): > 100 µM | TGI (M14 melanoma): > 100 µM | TGI (SNB-75 CNS): > 100 µM | TGI (COLO 205 colon): > 100 µM | TGI (NCI-H460 lung): > 100 µM | TGI (SK-OV-3 ovarian): > 100 µM | TGI (NCI-H23 lung): > 100 µM | TGI (T-47D breast): > 100 µM | TGI (UACC-257 melanoma): > 100 µM | TGI (OVCAR-4 ovarian): > 100 µM | TGI (BT-549 breast): > 100 µM | TGI (HT29 colon): > 100 µM | TGI (UACC-62 melanoma): > 100 µM | TGI (UO-31 renal): > 100 µM | TGI (786-0 renal): > 100 µM | TGI (MCF7 breast): > 100 µM | TGI (CAKI-1 renal): > 100 µM | TGI (ACHN renal): > 100 µM | TGI (IGROV1 ovarian): > 100 µM | TGI (SN12C renal): > 100 µM | TGI (HCC-2998 colon): > 100 µM | TGI (MDA-MB-435): > 100 µM | TGI (MDA-MB-231 breast): > 100 µM | TGI (SNB-19 CNS): > 100 µM | TGI (EKVX NSCLC): > 100 µM | TGI (SK-MEL-2 melanoma): > 100 µM | TGI (HOP-92 NSCLC): > 100 µM | TGI (SR leukemia): > 100 µM | TGI (CCRF-CEM leukemia): > 100 µM | TGI (NCI-H226 lung): > 100 µM | TGI (RXF 393 renal): > 100 µM | TGI (KM12 colon): > 100 µM | TGI (SF-295 CNS): > 100 µM | TGI (RPMI-8226 leukemia): > 100 µM | TGI (TK-10 renal): > 100 µM
